Test results reported in ChEMBL document CHEMBL1148657, “Diels-Alder/thiol-olefin co-oxygenation approach to antimalarials incorporating the 2,3-dioxabicyclo[3.3.1]nonane pharmacophore” (Bioorg Med Chem Lett, 2006).

Experiments:
Plasmodium falciparum [1] = test: Antimalarial activity against Plasmodium falciparum NF54; type: functional, organism-based
Plasmodium falciparum [2] = test: Antimalarial activity against chloroquine-resistant Plasmodium falciparum K1; type: functional, organism-based

SMILES	IC50 (Plasmodium falciparum [1]) [nM]	IC50 (Plasmodium falciparum [2]; Plasmodium falciparum, K1) [nM]	IC50 (Plasmodium falciparum [2]) [nM]
C[C@@H]1CC[C@H]2[C@@H](C)C(=O)O[C@@H]3O[C@@]4(C)CC[C@@H]1[C@]32OO4 [ARTEMISININ]	8.9		
CC1(O)CCC2CC1OO[C@]2(CSc1ccc(Cl)cc1)c1ccccc1 (stereo partly drawn)		247	
CC1(O)CCC2CC1OO[C@@]2(CS(=O)(=O)c1ccccc1)c1ccccc1 (stereo partly drawn)		92	
O=C(CS(=O)(=O)c1ccccc1)c1ccccc1		1000	
CC(=O)OC1(C)CCC2CC1OO[C@@]2(CS(=O)(=O)c1ccccc1)c1ccccc1 (stereo partly drawn)		42	
CC1(O)CCC2CC1OO[C@]2(CS(=O)(=O)c1ccc(Cl)cc1)c1ccccc1 (stereo partly drawn)		225	
CC(=O)OC1(C)CCC2CC1OO[C@]2(/C=C\c1ccccc1)c1ccccc1 (stereo partly drawn)		34	23
CC1(O)CCC2CC1OO[C@@]2(CS(=O)(=O)c1ccc(Cl)cc1)c1ccccc1 (stereo partly drawn)		107	
CC(=O)OC1(C)CCC2CC1OO[C@]2(CS(=O)(=O)c1ccccc1)c1ccccc1 (stereo partly drawn)		72	
CC1(OCc2ccccc2)CCC2CC1OO[C@@]2(C)CS(=O)(=O)c1ccccc1 (stereo partly drawn)	6.5		
C[C@@H]1C(=O)C[C@H]2C[C@@H]1OO[C@@]2(C)/C=C\c1ccc(C(F)(F)F)cc1C(F)(F)F [ARTEFLENE]		76	
CC(=O)OC1(C)CCC2CC1OO[C@@]2(CSc1ccccc1)c1ccccc1 (stereo partly drawn)		124	
CC(=O)OC1(C)CCC2CC1OO[C@]2(CSc1ccccc1)c1ccccc1 (stereo partly drawn)		164	
CC1(O)CCC2CC1OO[C@]2(CS(=O)(=O)c1ccccc1)c1ccccc1 (stereo partly drawn)		230	
CC1(O)CCC2CC1OO[C@@]2(CSc1ccccc1)c1ccccc1 (stereo partly drawn)		81	
CC1(O)CCC2CC1OO[C@@]2(CSc1ccc(Cl)cc1)c1ccccc1 (stereo partly drawn)		541	
CC1(O)CCC2CC1OO[C@]2(CSc1ccccc1)c1ccccc1 (stereo partly drawn)		298	
